Our source for the EC50 values is US12503454B2, “LPA receptor antagonists and uses thereof” (Gilead Sciences, Inc., priority 2021, dated 2025).

The structures appear in SMILES notation. A value given as a limit tells only on which side of the number the result lay.

Sequence of human LPAR1 (Q92633 whole entry): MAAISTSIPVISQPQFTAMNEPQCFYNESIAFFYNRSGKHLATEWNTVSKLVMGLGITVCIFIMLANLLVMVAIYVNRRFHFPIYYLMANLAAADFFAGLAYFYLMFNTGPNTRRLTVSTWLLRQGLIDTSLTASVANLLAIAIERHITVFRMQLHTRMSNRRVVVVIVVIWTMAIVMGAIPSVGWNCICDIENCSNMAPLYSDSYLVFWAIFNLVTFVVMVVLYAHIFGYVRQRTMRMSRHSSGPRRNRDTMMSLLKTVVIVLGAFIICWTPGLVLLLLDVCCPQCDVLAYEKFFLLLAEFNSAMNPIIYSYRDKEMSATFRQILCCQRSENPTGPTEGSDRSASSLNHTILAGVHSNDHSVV

This experiment concerns the target human LPAR1 (Homo sapiens, UniProt Q92633). The experiment can be described thus: LPAR1 intracellular calcium mobilization assay (antagonist mode, FLIPR). In kind it is cell-based. The conditions noted are these: CHO-K1 EDG2 cells expressing human LPAR1; test compound 0.5 nM to 10 μM pre-incubated 60 minutes at 37° C., then LPA 18:2 at EC80 concentration (100 nM). As for the experimental part:
In vitro LPAR1 activity was measured in an intracellular calcium mobilization assay. CHO-K1 EDG2 cells (DiscoverX cat #93-0644C2) expressing human LPAR1 (NM_001401.3) were seeded in a total volume of 25 μL of Dulbecco's Modification of Eagle's Medium (DMEM) with 10% Fetal Bovine Serum, 1× PenStrepGlutamine, 300 μg/ml Hygromycin, and 800 μg/ml G418 into 384-well tissue culture plate (Grenier #781091) at 15,000 cells/well and incubated at 37° C. overnight. Prior to testing, 25 μL Calcium Loading Dye Component A (FLIPR Calcium 6 Assay Kit Molecular Device # R8190) and 2.5 mM Probenecid (Invitrogen # P36400, prepared fresh) in Hank's Balanced Salt Solution (Corning #21-023-CV), 20 mM HEPES (Corning #25-060-CI), 0.1% Bovine Serum Albumin (Sigma-Aldrich # A7906-500G) was add to the cells for 60 minutes at 37° C.
Agonist dose curves of LPA 18:2 (Avanti Polar Lipids cat #857138, 0.5 nM to 10 μM) were recorded to determine the LPA 18:2 EC80 for subsequent antagonist assays. For agonist dose curves, cells were removed from the incubator 2 hours after dye loading and transferred to the FLIPR Tetra instrument (Molecular Devices, San Jose, CA). Calcium mobilization was monitored for 5 min and 10 μL 6×LPA in HBSS/20 mM Hepes/0.1% bovine serum albumin (BSA) was added to the cells 5 seconds into the assay.
To determine the LPAR1 antagonist activity of test compounds, cells were pre-incubated with test compound at a dose range of 0.5 nM to 10 μM, followed by LPA at EC80 concentration (100 nM). After dye loading, cells were removed from the incubator and 0.3 μL of 200× antagonist was added. Cells were incubated for 60 minutes at 37° C. Antagonist activity was measured on a FLIPR Tetra. Calcium mobilization was monitored for 3.5 minutes and 10 μL 6×EC80 LPA in HBSS, 20 mM HEPES, and 0.1% BSA was added to the cells 5 seconds into the assay. Signal amplitude (Maximum minus minimum) values were plotted against log10 of antagonist concentration using Dose Response Tool (Gilead Sciences Inc.) to determine […].
To assess the antagonistic potential of exemplified compounds […] were determined for Compounds 1 to 66 in the LPAR1 calcium mobilization assay. The compound numbers correspond to the compound numbers in Examples 1 to 18. N/A=not available.
In general terms: Calcium flux is commonly read through the fluorescence of an indicator in the cells.
As to `C[C@@H](OC(=O)Nc1c(-c2ccc(C(=O)Nc3cc(Cl)nc(C(F)(F)F)c3)cn2)nnn1C)c1cc(F)cnc1F` [Compound 43, (R)-1-(2,5-difluoro-pyridin-3-yl)ethyl (4-(5-((2-chloro-6-(trifluoromethyl)-pyridin-4-yl)-carbamoyl)pyridin-2-yl)-1-methyl-1H-1,2,3-triazol-5-yl)-carbamate], the EC50 was determined as 9 nM. Consider `C[C@@H](OC(=O)Nc1c(-c2ccc(C(=O)NC3CC(c4ccccc4)C3)cn2)nnn1C)c1cc(F)cnc1F` (stereo partly drawn) [Compound 44, (R)-1-(2,5-difluoro-pyridin-3-yl)ethyl (1-methyl-4-(5-((3-phenylcyclo-butyl)carbamoyl)-pyridin-2-yl)-1H-1,2,3-triazol-5-yl)-carbamate], for which the EC50 is 273 nM. Take `C[C@@H](OC(=O)Nc1c(-c2ccc(C(=O)Nc3ccnc(C(F)(F)F)c3)cn2)nnn1C)c1cc(F)cnc1Cl` [Compound 45, (R)-1-(2-chloro-5-fluoropyridin-3-yl)ethyl (1-methyl-4-(5-((2-(trifluoromethyl)pyridin-4-yl)carbamoyl)pyridin-2-yl)-1H-1,2,3-triazol-5-yl)carbamate]: the EC50 is under 4.6 nM. The same measure for `C[C@@H](OC(=O)Nc1c(-c2ccc(C(=O)NC34CC(F)(C3)C4)cn2)nnn1C)c1cc(F)cnc1Cl` [Compound 46, (R)-1-(2-chloro-5-fluoropyridin-3-yl)ethyl (4-(5-((3-fluorobicyclo-[1.1.1]pentan-1-yl)carbamoyl)-pyridin-2-yl)-1-methyl-1H-1,2,3-triazol-5-yl)-carbamate]: 88.1 nM; for `C[C@@H](OC(=O)Nc1c(-c2ccc(C(=O)NC34CC(C#N)(C3)C4)cn2)nnn1C)c1cc(F)cnc1Cl` [Compound 47, (R)-1-(2-chloro-5-fluoropyridin-3-yl)ethyl (4-(5-((3-cyanobicyclo-[1.1.1]pentan-1-yl)carbamoyl)-pyridin-2-yl)-1-methyl-1H-1,2,3-triazol-5-yl)-carbamate]: under 4.6 nM. For the compound `C[C@@H](OC(=O)Nc1c(-c2ccc(C(=O)NC34CC(C(F)F)(C3)C4)cn2)nnn1C)c1cc(F)cnc1Cl` [Compound 48, (R)-1-(2-chloro-5-fluoropyridin-3-yl)ethyl (4-(5-((3-(difluoromethyl)-bicyclo[1.1.1]-pentan-1-yl)-carbamoyl)pyridin-2-yl)-1-methyl-1H-1,2,3-triazol-5-yl)carbamate], the EC50 came out at 80.7 nM.

With `C[C@@H](OC(=O)Nc1c(-c2ccc(C(=O)Nc3ccc(C#N)cc3)cn2)nnn1C)c1cc(F)cnc1Cl` [Compound 49, (R)-1-(2-chloro-5-fluoropyridin-3-yl)ethyl (4-(5-((4-cyanophenyl)-carbamoyl)pyridin-2-yl)-1-methyl-1H-1,2,3-triazol-5-yl)carbamate], the EC50 turned out to be 74.3 nM.

Consider `C[C@@H](OC(=O)Nc1c(-c2ccc(C(=O)Nc3ccnc(C#N)c3)cn2)nnn1C)c1cc(F)cnc1Cl` [Compound 50, (R)-1-(2-chloro-5-fluoropyridin-3-yl)ethyl (4-(5-((2-cyanopyridin-4-yl)carbamoyl)-pyridin-2-yl)-1-methyl-1H-1,2,3-triazol-5-yl)-carbamate], for which the EC50 amounted to 8.7 nM.

Turning to `C[C@@H](OC(=O)Nc1c(-c2ccc(C(=O)Nc3cc(Cl)nc(Cl)c3)cn2)nnn1C)c1cc(F)cnc1Cl` [Compound 51, (R)-1-(2-chloro-5-fluoropyridin-3-yl)ethyl (4-(5-((2,6-dichloro-pyridin-4-yl)-carbamoyl)pyridin-2-yl)-1-methyl-1H-1,2,3-triazol-5-yl)carbamate], the EC50 is under 4.6 nM. In the case of `C[C@@H](OC(=O)Nc1c(-c2ccc(C(=O)Nc3nc(C(F)(F)F)co3)cn2)nnn1C)c1cc(F)cnc1Cl` [Compound 52], the EC50 worked out at 281 nM.

On to `C[C@@H](OC(=O)Nc1c(-c2ccc(C(=O)Nc3ncc(C(F)(F)F)s3)cn2)nnn1C)c1cc(F)cnc1Cl` [Compound 53, (R)-1-(2-chloro-5-fluoropyridin-3-yl)ethyl (1-methyl-4-(5-((5-(trifluoro-methyl)thiazol-2-yl)carbamoyl)-pyridin-2-yl)-1H-1,2,3-triazol-5-yl)carbamate], for which the EC50 was found to be 19.4 nM.

Turning to `C#CC12CC(NC(=O)c3ccc(-c4nnn(C)c4NC(=O)O[C@H](C)c4cc(F)cnc4Cl)nc3)(C1)C2` [Compound 54, (R)-1-(2-chloro-5-fluoropyridin-3-yl)ethyl (4-(5-((3-ethynylbicyclo-[1.1.1]pentan-1-yl)carbamoyl)-pyridin-2-yl)-1-methyl-1H-1,2,3-triazol-5-yl)-carbamate], the EC50 was under 4.6 nM. As to `C[C@@H](OC(=O)Nc1c(-c2ccc(C(=O)NC34CC(Cl)(C3)C4)cn2)nnn1C)c1cccnc1F` [Compound 55, (R)-1-(2-fluoropyridin-3-yl)ethyl (4-(5-((3-chlorobicyclo[1.1.1]pentan-1-yl)carbamoyl)pyridin-2-yl)-1-methyl-1H-1,2,3-triazol-5-yl)carbamate], the EC50 turned out to be 58.1 nM. Consider `C[C@@H](OC(=O)Nc1c(-c2ccc(C(=O)NC34CC(C(F)(F)F)(C3)C4)cn2)nnn1C)c1cccnc1F` [Compound 56, (R)-1-(2-fluoropyridin-3-yl)ethyl (1-methyl-4-(5-((3-(trifluoro-methyl)bicyclo[1.1.1]-pentan-1-yl)carbamoyl)-pyridin-2-yl)-1H-1,2,3-triazol-5-yl)carbamate], for which the EC50 is 139 nM. Turning to `C[C@@H](OC(=O)Nc1c(-c2ccc(C(=O)NC34CC(F)(C3)C4)cn2)nnn1C)c1cccnc1F` [Compound 57, (R)-1-(2-fluoropyridin-3-ylethyl (4-(5-((3-fluorobicyclo[1.1.1]-pentan-1-yl)carbamoyl)-pyridin-2-yl)-1-methyl-1H-1,2,3-triazol-5-yl)-carbamate], the EC50 is 717 nM. `Cc1nc(-c2nnn(C)c2NC(=O)O[C@H](C)c2cccnc2Cl)ccc1C(=O)NC12CC(Cl)(C1)C2` [Compound 58, (R)-1-(2-chloropyridin-3-yl)ethyl (4-(5-((3-chlorobicyclo[1.1.1]pentan-1-yl)carbamoyl)-6-methylpyridin-2-yl)-1-methyl-1H-1,2,3-triazol-5-yl)carbamate]: the EC50 was 48.3 nM.

Regarding `C[C@@H](OC(=O)Nc1c(-c2ncc(C(=O)NC34CC(C#N)(C3)C4)cc2F)nnn1C)c1cccnc1Cl` [Compound 59, (R)-1-(2-chloropyridin-3-yl)ethyl (4-(5-((3-cyanobicyclo[1.1.1]pentan-1-yl)carbamoyl)-3-fluoropyridin-2-yl)-1-methyl-1H-1,2,3-triazol-5-yl)carbamate], the EC50 came out at 23.2 nM. As to `C[C@@H](OC(=O)Nc1c(-c2ccc(C(=O)NC34CC(F)(C3)C4)c(Cl)n2)nnn1C)c1cccnc1Cl` [Compound 60, (R)-1-(2-chloropyridin-3-yl)ethyl (4-(6-chloro-5-((3-fluorobicyclo[1.1.1]pentan-1-yl)carbamoyl)pyridin-2-yl)-1-methyl-1H-1,2,3-triazol-5-yl)carbamate], the EC50 was 93.4 nM.

As for `C[C@@H](OC(=O)Nc1c(-c2cc(F)c(C(=O)NC34CC(C#N)(C3)C4)cn2)nnn1C)c1cccnc1Cl` [Compound 61, (R)-1-(2-chloropyridin-3-yl)ethyl (4-(5-((3-cyanobicyclo[1.1.1]pentan-1-yl)carbamoyl)-4-fluoropyridin-2-yl)-1-methyl-1H-1,2,3-triazol-5-yl)carbamate], the EC50 worked out at 233 nM. Regarding `C[C@@H](OC(=O)Nc1c(-c2ccc(C(=O)NC34CC(C#N)(C3)C4)c(C(F)(F)F)n2)nnn1C)c1cccnc1Cl` [Compound 62, (R)-1-(2-chloropyridin-3-yl)ethyl (4-(5-((3-cyanobicyclo[1.1.1]pentan-1-yl)carbamoyl)-6-(trifluoromethyl)pyridin-2-yl)-1-methyl-1H-1,2,3-triazol-5-yl)carbamate], the EC50 came to 14.5 nM. Turning to `C[C@@H](OC(=O)Nc1c(-c2ccc(C(=O)NC34CC(F)(C3)C4)c(F)n2)nnn1C)c1cccnc1Cl` [Compound 63, (R)-1-(2-chloropyridin-3-yl)ethyl (4-(6-fluoro-5-((3-fluorobicyclo[1.1.1]pentan-1-yl)carbamoyl)pyridin-2-yl)-1-methyl-1H-1,2,3-triazol-5-yl)carbamate], the EC50 amounted to 145 nM.

For the compound `C[C@@H](OC(=O)Nc1c(-c2ncc(C(=O)NC34CC(F)(C3)C4)cc2F)nnn1C)c1cccnc1Cl` [Compound 64, (R)-1-(2-chloropyridin-3-yl)ethyl (4-(3-fluoro-5-((3-fluorobicyclo[1.1.1]pentan-1-yl)carbamoyl)pyridin-2-yl)-1-methyl-1H-1,2,3-triazol-5-yl)carbamate], the EC50 is 93.5 nM.

A word on the EC50: it is the midpoint of the concentration-response curve.
